Patent US8518953B2, “Aminopyrimidines useful as inhibitors of protein kinases” (Vertex Pharmaceuticals Incorporated, priority 2007, dated 2013)

Legend:
β-catenin = β-catenin induction in brains of MCAO rats (Western blot); format: in vivo, rat; conditions: all doses, at the termination of the study
Description: Hypotonic Lysis Buffer consists of 10 mM HEPES, 10 mM KCL, 1.5 mM MgCl2, 1.0 mM EDTA, 1.0 mM DTT, 1× Roche protease inhibitor cocktail, and 1.0 mM AEBSF Calbiochem protease inhibitor cocktail (cat#539134). All concentrations are final and are diluted in water. First, hypotonic lysis buffer is added to the tissue at 5×'s weight. The tissue is then broken up on ice using the end of a syringe plunger. Next, the samples are freeze-thawed five times. The lysates are then transferred to ultracentrifuge tubes and spun at 100,000 g for 35 min at 4° C. The supernatants are then collected and an aliquot is taken to measure protein with the Pierce BCA protein assay kit (cat#23225), using BSA standard curve. The remaining protein lysates are diluted 1:1 with laemmli sample buffer containing β-mercaptoethanol. The protein concentration is then normalized. The samples are boiled for 5 min at 95° C. followed by a spin at 14,000 rpm in a mini-centrifuge for 1 min. The samples are then snap frozen with dry ice and stored at −20° C. The samples are first loaded on 10% Tris-glycine gel (10 uL/well). […] Induction of β-catenin is determined by comparison of the density of protein band in samples obtained from compound treated animals with that of vehicle treated animals. […] Lysates were analyzed by Western blot (see Example 3) and probed for GSK-3α/β pTYR levels. […]

rats subjected to MCAO = test: Post Stroke Recovery MCAO Model: Tray Reaching; format: in vivo, rat; conditions: 7 and 14 days after stroke, compared with vehicle treatment
Text: Adult male Wistar rats are pre-trained on a battery of behavioral tests including: tray reach, gridwalk, forelimb asymmetry (cylinder bracing), forelimb inhibition (swim test) (see below for detailed description of tests). Following pre-stroke behavioral assessment the rats receive surgery during which a stroke is induced. The rats are pseudo-randomly divided into 5 equal groups (n=12) ensuring an equal number of right and left strokes within each treatment group. The first group receives sham surgery with vehicle as treatment. Administration of the test compound and vehicle (dose, route, timing) is determined by the sponsor. The core body temperature is maintained at 37° C. (+/−1°).
Following surgery all animals are behaviorally assessed 1, 7, and 14 d post-stroke. At the conclusion of behavioral assessment all rats undergo an MRI to determine infarct volume. […]
Each animal is weighed (average weights were 340 g) and then anesthetized with isoflurane (4% isoflurane carried on 2 l/min medical grade oxygen to induce surgical plane and then 2% with 2 l/min oxygen to maintain a surgical plane). […] Rectal temperature is monitored and maintained at 37 C+/−1° C. for the duration of the surgery and until the rat is awake and mobile (approximately 3 hr). […]
Forepaw use is measured with a procedure that is adapted from the method devised by Whishaw, O'Connor, and Dunnett (1986). […]

Cc1nc(-c2ccccc2Cl)nc(Nc2n[nH]c3ncc(F)cc23)c1C [Compound I-1, N-(2-(2-chlorophenyl)-5,6-dimethylpyrimidin-4-yl)-5-fluoro-1H-pyrazolo[3,4-b]pyridin-3-amine]
induction of β-catenin in the brain (β-catenin): no induction of β-catenin | deficit in reaching performance (tray reaching) (rats subjected to MCAO): significantly ameliorated this deficit
